test system: HCV replicon; test: HCV replicon luciferase reporter assay; assay type: cell-based; conditions: Hepatitis C virus, Table 5; read-out: IC50
Method in brief: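 IC50 is the compound amount halving luciferase signal, measured after 24–48 h treatment at various concentrations. Cells carrying the HCV replicon were pre-incubated 24 h at 37° C, 5% CO2 after seeding at about 5,000–7,500 cells/well before dosing.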

| SMILES | IC50 [µM] |
| --- | --- |
| COc1cccc(-c2cccc(C(=O)NCCCNc3nsc4ccccc34)c2)c1OC [Compound 369, N-(3-(benzo[d]isothiazol-3-ylamino)propyl)-5′,6′-dimethoxybiphenyl-3-carboxamide] | < 5 |
| COc1ccc(-c2cccc(C(=O)NCCNc3nsc4ccccc34)c2)cc1OC [Compound 370, N-(2-(benzo[d]isothiazol-3-ylamino)ethyl)-3′,4′-dimethoxybiphenyl-3-carboxamide] | < 5 |
| COc1ccc(-c2cccc(C(=O)NCCNc3nsc4ccccc34)c2)cc1 [Compound 371, N-(2-(benzo[d]isothiazol-3-ylamino)ethyl)-4′-methoxybiphenyl-3-carboxamide] | < 5 |
| Cc1ccc(-c2cccc(C(=O)NCCNc3nsc4ccccc34)c2)cc1C [Compound 372, N-(2-(benzo[d]isothiazol-3-ylamino)ethyl)-3′,4′-dimethylbiphenyl-3-carboxamide] | < 5 |
| O=C(NCCNc1nsc2ccccc12)c1cccc(-c2ccc3ccccc3c2)c1 [Compound 373, N-(2-(benzo[d]isothiazol-3-ylamino)ethyl)-3-(naphthalen-2-yl)benzamide] | < 5 |
| O=C(NCCNc1nsc2ccccc12)c1cccc(-c2cccc3cccnc23)c1 [Compound 374, N-(2-(benzo[d]isothiazol-3-ylamino)ethyl)-3-(quinolin-8-yl)benzamide] | < 5 |
| O=C(NCCNc1nsc2ccccc12)c1cccc(-c2cnc3ccccc3c2)c1 [Compound 375, N-(2-(benzo[d]isothiazol-3-ylamino)ethyl)-3-(quinolin-3-yl)benzamide] | < 5 |
| CC(C)Oc1ccccc1-c1cccc(C(=O)NCCCNc2nsc3ccccc23)c1 [Compound 376, N-(3-(benzo[d]isothiazol-3-ylamino)propyl)-6′-isopropoxybiphenyl-3-carboxamide] | < 5 |
| CC(C)Oc1ccccc1-c1ccc(C(=O)NCCNc2nsc3ccccc23)cc1 [Compound 377, N-(2-(benzo[d]isothiazol-3-ylamino)ethyl)-2′-isopropoxybiphenyl-4-carboxamide] | < 5 |
| COc1ccc(-c2cccc(C(=O)NCCCNc3nsc4ccccc34)c2)cc1 [Compound 378, N-(3-(benzo[d]isothiazol-3-ylamino)propyl)-4′-methoxybiphenyl-3-carboxamide] | < 5 |
| CCCCc1ccc(NC(=O)NCCCNc2nsc3ccccc23)cc1 [Compound 379, 1-(3-(benzo[d]isothiazol-3-ylamino)propyl)-3-(4-butylphenyl)urea] | < 5 |
| O=C(NCCCNc1nsc2ccccc12)c1cccc(-c2ccc(Cl)nc2)c1 [Compound 380, N-(3-(benzo[d]isothiazol-3-ylamino)propyl)-3-(6-chloropyridin-3-yl)benzamide] | < 5 |
| CCOc1ccc(C)c(-c2cccc(C(=O)NCCCNc3nsc4ccccc34)c2)c1 [Compound 381, N-(3-(benzo[d]isothiazol-3-ylamino)propyl)-3′-ethoxy-6′-methylbiphenyl-3-carboxamide] | < 5 |
| COc1ccc(OC)c(-c2cccc(C(=O)NCCCNc3nsc4ccccc34)c2)c1 [Compound 382, N-(3-(benzo[d]isothiazol-3-ylamino)propyl)-3′,6′-dimethoxybiphenyl-3-carboxamide] | < 5 |
| CCCOc1cc(F)ccc1-c1cccc(C(=O)NCCCNc2nsc3ccccc23)c1 [Compound 383, N-(3-(benzo[d]isothiazol-3-ylamino)propyl)-4′-fluoro-6′-propoxybiphenyl-3-carboxaimde] | < 5 |
| COc1ccccc1-c1cccc(C(=O)NCCCNc2nsc3ccccc23)c1 [Compound 384, N-(3-(benzo[d]isothiazol-3-ylamino)propyl)-6′-methoxybiphenyl-3-carboxamide] | < 5 |
| O=C(NCCNc1nsc2ccccc12)c1ccc(-c2ccccc2O)cc1 [Compound 385, N-(2-(benzo[d]isothiazol-3-ylamino)ethyl)-2′-hydroxybiphenyl-4-carboxamide] | < 5 |
| O=C(NCCCNc1nsc2ccccc12)c1cccc(I)c1 [Compound 386, N-(3-(benzo[d]isothiazol-3-ylamino)propyl)-3-iodobenzamide] | < 5 |
| O=C(NCCCNc1nsc2ccccc12)Nc1ccc(I)cc1 [Compound 387, 1-(3-(benzo[d]isothiazol-3-ylamino)propyl)-3-(4-iodophenyl)urea] | < 5 |
| COc1ccc(-c2cccc(C(=O)NCCCNc3nsc4ccccc34)c2)cn1 [Compound 388, N-(3-(benzo[d]isothiazol-3-ylamino)propyl)-3-(6-methoxypyridin-3-yl)benzamide] | < 5 |

| SMILES | IC50 [µM] |
| --- | --- |
| CC(C)(C)OC(=O)N1CC=C(c2cccc(C(=O)NCCCNc3nsc4ccccc34)c2)CC1 [Compound 390, tert-butyl 4-(3-(3-(benzo[d]isothiazol-3-ylamino)propylcarbamoyl)phenyl)-5,6-dihydropyridine-1(2H)-carboxylate] | < 5 |
| CCOc1cc(OCC)cc(C(=O)NCCCNc2nsc3ccccc23)c1 [Compound 391, N-(3-(benzo[d]isothiazol-3-ylamino)propyl)-3,5-diethoxybenzamide] | < 5 |
| Cc1ccc(OC(C)C)c(-c2ccc(NC(=O)NCCCNc3nsc4ccccc34)cc2)c1 [Compound 392, 1-(3-(benzo[d]isothiazol-3-ylamino)propyl)-3-(2′-isopropoxy-5′-methylbiphenyl-4-yl)urea] | < 5 |
| COc1cc(F)ccc1-c1ccc(NC(=O)NCCCNc2nsc3ccccc23)cc1 [Compound 393, 1-(3-(benzo[d]isothiazol-3-ylamino)propyl)-3-(4′-fluoro-2′-methoxybiphenyl-4-yl)urea] | < 5 |
| O=C(NCCCNc1nsc2ccccc12)c1cccc(C2=CCNCC2)c1 [Compound 394, N-(3-(benzo[d]isothiazol-3-ylamino)propyl)-3-(1,2,3,6-tetrahydropyridin-4-yl)benzamide] | < 5 |
| COc1ccccc1-c1ccc(NC(=O)NCCCNc2nsc3ccccc23)cc1 [Compound 395, 1-(3-(benzo[d]isothiazol-3-ylamino)propyl)-3-(2′-methoxybiphenyl-4-yl)urea] | < 5 |
| O=C(NCCCNc1nsc2ccccc12)c1ccc(O)c(Br)c1 [Compound 396, N-(3-(benzo[d]isothiazol-3-ylamino)propyl)-3-bromo-4-hydroxybenzamide] | < 5 |
| O=C(NCCCNc1nsc2ccccc12)c1ccc(OCCN2CCOCC2)c(Br)c1 [Compound 397, N-(3-(benzo[d]isothiazol-3-ylamino)propyl)-3-bromo-4-(2-morpholinoethoxy)benzamide] | < 5 |
| COc1ccc(-c2ccc(C(=O)NCCCNc3nsc4cccc(S(=O)(=O)NC(C)(C)C)c34)cc2)cc1 [Compound 398, N-(3-(4-(N-tert-butylsulfamoyl)benzo[d]isothiazol-3-ylamino)propyl)-4′-methoxybiphenyl-4-carboxamide] | > 5 |
| COc1ccc(-c2ccc(C(=O)NCCCNc3nsc4cc(S(=O)(=O)NC(C)(C)C)ccc34)cc2)cc1 [Compound 399, N-(3-(6-(N-tert-butylsulfamoyl)benzo[d]isothiazol-3-ylamino)propyl)-4′-methoxybiphenyl-4-carboxamide] | > 5 |
| COc1ccc(-c2ccc(C(=O)NCCCNc3nsc4c(S(=O)(=O)C(C)(C)C)cccc34)cc2)cc1 [Compound 400, N-(3-(7-(tert-butylsulfonyl)benzo[d]isothiazol-3-ylamino)propyl)-4′-methoxybiphenyl-4-carboxamide] | < 5 |
| COc1ccc(-c2ccc(C(=O)NCCCNc3nsc4cccc(S(N)(=O)=O)c34)cc2)cc1 [Compound 401, 4′-methoxy-N-(3-(4-sulfamoylbenzo[d]isothiazol-3-ylamino)propyl)biphenyl-4-carboxamide] | > 5 |
| COc1ccc(-c2ccc(C(=O)NCCCNc3nsc4cc(S(N)(=O)=O)ccc34)cc2)cc1 [Compound 402, 4′-methoxy-N-(3-(6-sulfamoylbenzo[d]isothiazol-3-ylamino)propyl)biphenyl-4-carboxamide] | < 5 |
| COc1ccc(-c2ccc(CNCCCNc3nsc4ccc(Br)cc34)cc2)cc1 [Compound 404, N^1-(5-bromobenzo[d]isothiazol-3-yl)-N^3-((4′-methoxybiphenyl-4-yl)methyl)propane-1,3-diamine] | < 5 |
| COc1ccc(-c2ccc(C(=O)NCCCNc3nsc4ccc(-c5ccccc5)cc34)cc2)cc1 [Compound 405, 4′-methoxy-N-(3-(5-phenylbenzo[d]isothiazol-3-ylamino)propyl)biphenyl-4-carboxamide] | < 5 |
| COc1ccc(-c2ccc(C(=O)NCCCNc3nsc4ccc(-c5ccc(OC)cc5)cc34)cc2)cc1 [Compound 406, 4′-methoxy-N-(3-(5-(4-methoxyphenyl)benzo[d]isothiazol-3-ylamino)propyl)biphenyl-4-carboxamide] | < 5 |
| COc1ccc(-c2ccc(C(=O)NCCCNc3nsc4ccc(-c5cccc(OC)c5F)cc34)cc2)cc1 [Compound 407, N-(3-(5-(2-fluoro-3-methoxyphenyl)benzo[d]isothiazol-3-ylamino)propyl)-4′-methoxybiphenyl-4-carboxamide] | < 5 |
| COc1ccc(-c2ccc(C(=O)NCCCNc3nsc4ccc(-c5ccc(OC(C)C)cc5)cc34)cc2)cc1 [Compound 409, N-(3-(5-(4-isopropoxyphenyl)benzo[d]isothiazol-3-ylamino)propyl)-4′-methoxybiphenyl-4-carboxamide] | < 5 |
| COc1ccc(-c2ccc(CNCCCNc3nsc4ccc(-c5ccc(OC)cc5)cc34)cc2)cc1 [Compound 410, N^1-((4′-methoxybiphenyl-4-yl)methyl)-N^3-(5-(4-methoxyphenyl)benzo[d]isothiazol-3-yl)propane-1,3-diamine] | < 5 |
| COc1ccc(-c2ccc(CNCCCNc3nsc4ccc(-c5cc(F)cc(F)c5)cc34)cc2)cc1 [Compound 411, N^1-(5-(3,5-difluorophenyl)benzo[d]isothiazol-3-yl)-N^3-((4′-methoxybiphenyl-4-yl)methyl)propane-1,3-diamine] | < 5 |

— patent US7776847B2, “Benzisothiazoles useful for treating or preventing HCV infection” (priority 2005, dated 2010)
